Laboratory results reported in patent US7888379B2, “Thiazole derivatives and use thereof” (Merck Serono SA, priority 2005, dated 2011).
pIC50: −log10 of the molar value.

Columns and labels:
[1] = biological target: Human recombinant GST-PI3Kγ (Homo sapiens, UniProt P48736); test: High Throughput PI3K Lipid Kinase Assay (SPA, neomycin-coated beads); type: biochemical
Excerpt: a) High Throughput PI3K Lipid Kinase Assay (Binding Assay):
The efficacy of compounds of the invention in inhibiting the PI3K induced-lipid phosphorylation may be tested in the following binding assay
The assay combines the scintillation proximity assay technology (SPA, Amersham) with the capacity of neomycin (a polycationic antibiotic) to bind phospholipids with high affinity and specificity. The Scintillation Proximity Assay is based on the properties of weakly emitting isotopes (such as ^3H, ^125I, ^33P). Coating SPA beads with neomycin allows the detection of phosphorylated lipid substrates after incubation with recombinant PI3K and radioactive ATP in the same well, by capturing the radioactive phospholipids to the SPA beads through their specific binding to neomycin.
To a 384 wells MTP containing 5 μl of the test compound of Formula (I) (solubilized in 6% DMSO; to yield a concentration of 100, 30, 10, 3, 1, 0.3, 0.1, 0.03, 0.01, 01 μM of the test compound), the following assay components are added. 1) 5 μl (58 ng) of Human recombinant GST-PI3Kγ (in Hepes 40 mM, pH 7.4, DTT 1 mM and ethylenglycol 5%) 2) 10 μl of lipid micelles and 3) 10 μl of Kinase buffer ([^33P]γ-ATP 45 μM/60 nCi, MgCl2 30 mM, DTT 1 mM, β-Glycerophosphate 1 mM, Na3VO4 100 μM, Na Cholate 0.3%, in Hepes 40 mM, pH 7.4). After incubation at room temperature for 180 minutes, with gentle agitation, the reaction is stopped by addition of 60 μl of a solution containing 100 μg of neomycin-coated PVT SPA beads in PBS containing ATP 10 mM and EDTA 5 mM. The assay is further incubated at room temperature for 60 minutes with gentle agitation to allow binding of phospholipids to neomycin-SPA beads. After precipitation of the neomycin-coated PVT SPA beads for 5 minutes at 1500×g, radioactive PtdIns(3)P is quantified by scintillation counting in a Wallac MicroBeta™ plate counter.
The values indicated in Table I below refer to the IC50 (nM) with respect to PI3Kγ, i.e. the amount necessary to achieve 50% inhibition of said target. Said values show a considerable inhibitory potency of thiazole compounds with regard to PI3Kγ.

[2] = test system: Akt/PKB phosphorylation; test: Cell based ELISA to monitor PI3K inhibition: Akt/PKB phosphorylation in Raw 264-7 macrophages after Complement 5a stimulation; conditions: Mus musculus, RAW264.7, phospho Serine 473 Akt, read-out: Cell Assay (P-Akt, Elisa) IC50
Procedure: b) Cell Based ELISA to Monitor PI3K Inhibition:
The efficacy of compounds of the invention in inhibiting the PI3K induced Akt/PKB phosphorylation may be tested in the following cell based assay.
Measurement of Akt/PKB phosphorylation in macrophages after stimulation with Complement 5a: Raw 264: Raw 264-7 macrophages (cultured in DMEM-F12 medium containing 10% Fetal Calf serum and antibiotics) are plated at 20'000 cells/well in a 96 MTP 24 h before cell stimulation. Prior to the stimulation with […] of Complement 5a during 5 minutes, Cells are serum starved for 2 h, and pretreated with inhibitors for 20 minutes. After stimulation cells are fixed in 4% formaldehyde for 20 minutes and washed 3 times in PBS containing 1% Triton X-100 (PBS/Triton). […] Next, phosphorylated Akt/PKB is detected by an overnight incubation at 4° C. with primary antibody (anti phospho Serine 473 Akt IHC, Cell Signaling) diluted 800-fold in PBS/Triton, containing 5% bovine serum albumin (BSA). After 3 washes in PBS/Triton, cells are incubated for 60 minutes with a peroxidase conjugated goat-anti-rabbit secondary antibody (1/400 dilution in PBS/Triton, containing 5% BSA), washed 3 times in PBS/Triton, and 2 times in PBS and further incubated in 100 μl of luminescent substrate reagent solution (Pierce) for 2 minutes, followed by the reading (1 s/well). […]

[3] = test system: Neutrophils recruitment; test: Thioglycollate-induced peritoneal cavity cell recruitment model; type: in vivo; conditions: at 10 mg/kg after 4 hours, oral, female C3H mice, thioglycollate i.p.
Procedure: Thioglycollate-induced Peritoneal Cavity Cell Recruitment Model
The in vivo efficacy of compounds of the invention in inhibiting the migration of leukocytes upon intraperitoneal challenge of thioglycollate may be tested with the following assay.
8-10 weeks old female C3H mice are fasted during 18 hours. 15 minutes prior the intraperitoneal injection of thioglycollate (1.5%, 40 ml/kg), the mice are treated orally with Thiazoles of Formula (I). Control mice receive CMC/Tween as vehicle (10 ml/kg). The mice are then sacrificed by CO2 inhalation and the peritoneal cavity is washed two times with 5 ml of ice-cold PBS/1 mM EDTA. The ravages are done 4 hours or 48 hours after thioglycollate challenge to evaluate neutrophils or macrophages recruitment, respectively. The white blood cells (neutrophils, lymphocytes or macrophages) are counted using a Beckman Coulter® A°T 5diff™.
Dexamethasone is used as reference drug.

Human recombinant GST-PI3Kγ, sequence (P48736 whole entry): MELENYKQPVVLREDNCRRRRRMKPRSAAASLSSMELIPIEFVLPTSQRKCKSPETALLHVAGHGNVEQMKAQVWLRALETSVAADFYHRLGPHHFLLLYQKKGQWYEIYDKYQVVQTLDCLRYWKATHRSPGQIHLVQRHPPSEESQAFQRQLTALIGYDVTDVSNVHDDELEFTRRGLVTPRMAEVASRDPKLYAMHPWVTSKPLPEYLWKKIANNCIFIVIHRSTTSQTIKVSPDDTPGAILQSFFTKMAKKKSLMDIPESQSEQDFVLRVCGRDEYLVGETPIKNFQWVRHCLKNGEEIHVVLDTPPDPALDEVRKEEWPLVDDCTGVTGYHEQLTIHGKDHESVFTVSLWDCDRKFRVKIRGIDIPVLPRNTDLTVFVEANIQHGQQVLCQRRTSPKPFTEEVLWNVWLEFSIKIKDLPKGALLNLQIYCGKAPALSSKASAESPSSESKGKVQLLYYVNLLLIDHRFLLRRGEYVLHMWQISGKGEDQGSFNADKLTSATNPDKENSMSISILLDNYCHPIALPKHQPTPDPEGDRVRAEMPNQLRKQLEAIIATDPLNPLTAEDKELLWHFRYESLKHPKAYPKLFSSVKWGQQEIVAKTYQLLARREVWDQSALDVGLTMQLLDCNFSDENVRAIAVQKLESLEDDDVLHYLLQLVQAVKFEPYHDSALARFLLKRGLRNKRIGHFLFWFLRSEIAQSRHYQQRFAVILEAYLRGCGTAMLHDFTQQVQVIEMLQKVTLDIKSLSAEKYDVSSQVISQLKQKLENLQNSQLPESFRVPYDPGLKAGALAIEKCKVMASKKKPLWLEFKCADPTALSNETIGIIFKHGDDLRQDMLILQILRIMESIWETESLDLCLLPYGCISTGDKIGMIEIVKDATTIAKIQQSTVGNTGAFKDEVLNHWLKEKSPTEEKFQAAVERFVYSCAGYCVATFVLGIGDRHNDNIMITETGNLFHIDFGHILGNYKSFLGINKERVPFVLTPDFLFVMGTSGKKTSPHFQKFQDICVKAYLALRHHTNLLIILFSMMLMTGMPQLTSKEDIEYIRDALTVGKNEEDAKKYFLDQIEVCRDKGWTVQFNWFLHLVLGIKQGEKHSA

| SMILES | pIC50 [1] | pIC50 [2] | % of inhibition of Neutrophils recruitment [3] [%] |
| --- | --- | --- | --- |
| CC(=O)Nc1nc(C)c(-c2ccc(C=O)s2)s1 [Example 1, N-[5-(5-formyl-2-thienyl)-4-methyl-1,3-thiazol-2-yl]acetamide] | 6.67 |  |  |
| CC(=O)Nc1nc(C)c(-c2ccc(CO)s2)s1 [Example 3, N-[5-[5-(hydroxymethyl)-2-thienyl]-4-methyl-1,3-thiazol-2-yl]acetamide] | 6.66 |  |  |
| CC(=O)Nc1nc(C)c(-c2ccc(C(=O)N3CCOCC3)s2)s1 [Example 5] | 6.60 |  |  |

More lines, main results first:

| pIC50 [1] | pIC50 [2] | SMILES | % of inhibition of Neutrophils recruitment [3] [%] |
| --- | --- | --- | --- |
| 5.96 |  | CC(=O)Nc1nc(C)c(-c2ccc(C(=O)N3CCCC(O)C3)s2)s1 (stereo not drawn) [Example 8, N-(5-{5-[(3-hydroxypiperidin-1-yl)carbonyl]-2-thienyl}-4-methyl-1,3-thiazol-2-yl)acetamide] |  |
|  | 6.49 | C=CCNS(=O)(=O)c1ccc(-c2sc(NC(C)=O)nc2C)s1 [Example 12, N-(5-[5-{(allylamino)sulfonyl]-2-thienyl}-4-methyl-1,3-thiazol-2-yl) acetamide] | 38 |
